Test results: ChEMBL document CHEMBL5247611, “A bibliometric analysis of PROTAC from 2001 to 2021” (Eur J Med Chem, 2022)

Columns and labels:
[1] = system: MM1.S; assay: Antiproliferative activity against human MM1.S cells incubated for 72 hrs by MTS assay; type: functional, cell-based
[2] = system: MCF7; assay: Antiproliferative activity against human MCF7 cells assessed as inhibition of cell growth measured after 5 days by PrestoBlue cell viability assay; type: functional, cell-based; details: MCF7, 120 h
[3] = biological target: Androgen receptor (Homo sapiens) (UniProt P10275); assay: Binding affinity to androgen receptor (unknown origin) at 10 uM relative to control
[4] = system: LNCaP; assay: Antiproliferative activity against human LNCaP cells; type: functional, cell-based
[5] = biological target: T1, von Hippel-Lindau disease tumor suppressor/Bromodomain-containing protein 4 (Homo sapiens, UniProt O60885+P40337); assay: Protac activity at VHL/BRD4 in human HeLa cells assessed as degradation of BRD4 incubated for 24 hrs by Western blotting analysis; type: cell-based
T1 sequence (P40337 whole entry, looked up, other chains not shown): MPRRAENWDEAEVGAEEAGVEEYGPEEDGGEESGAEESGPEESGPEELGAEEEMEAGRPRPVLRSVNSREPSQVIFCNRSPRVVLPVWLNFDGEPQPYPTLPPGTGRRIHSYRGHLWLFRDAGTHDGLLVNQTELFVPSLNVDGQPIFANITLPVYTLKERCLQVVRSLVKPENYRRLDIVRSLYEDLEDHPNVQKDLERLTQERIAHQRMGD

[6] = biological target: T2, von Hippel-Lindau disease tumor suppressor/Bromodomain-containing protein 2 (Homo sapiens, UniProt P25440+P40337); assay: Protac activity at VHL/BRD2 in human HeLa cells assessed as degradation of BRD2 incubated for 24 hrs by Western blotting analysis; type: cell-based
T2 sequence (P25440 whole entry): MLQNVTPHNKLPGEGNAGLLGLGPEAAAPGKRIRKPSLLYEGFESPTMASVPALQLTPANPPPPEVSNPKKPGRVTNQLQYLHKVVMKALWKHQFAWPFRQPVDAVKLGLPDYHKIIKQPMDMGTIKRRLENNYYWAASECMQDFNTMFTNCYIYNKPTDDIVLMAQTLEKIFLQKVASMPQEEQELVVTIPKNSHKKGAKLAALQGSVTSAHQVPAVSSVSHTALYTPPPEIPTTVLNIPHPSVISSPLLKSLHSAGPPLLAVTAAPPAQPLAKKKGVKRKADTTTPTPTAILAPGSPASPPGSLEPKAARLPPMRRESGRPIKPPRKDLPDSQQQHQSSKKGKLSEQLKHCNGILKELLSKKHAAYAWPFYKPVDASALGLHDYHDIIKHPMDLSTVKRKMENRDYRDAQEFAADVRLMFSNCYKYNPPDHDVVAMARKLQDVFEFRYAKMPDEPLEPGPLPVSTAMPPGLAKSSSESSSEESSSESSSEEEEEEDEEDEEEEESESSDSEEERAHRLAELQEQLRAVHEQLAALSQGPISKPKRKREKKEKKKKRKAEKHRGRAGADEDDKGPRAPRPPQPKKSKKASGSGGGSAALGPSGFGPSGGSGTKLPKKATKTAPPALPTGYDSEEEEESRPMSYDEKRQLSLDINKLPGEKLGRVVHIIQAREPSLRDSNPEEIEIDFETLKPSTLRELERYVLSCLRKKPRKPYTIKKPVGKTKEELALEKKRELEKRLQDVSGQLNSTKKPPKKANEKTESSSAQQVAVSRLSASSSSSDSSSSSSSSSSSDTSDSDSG
T2 sequence (P40337 whole entry): as the sequence (P40337 whole entry, looked up, other chains not shown) above

[7] = system: MV4-11; assay: Antiproliferative activity against human MV4-11 cells incubated for 48 to 72 hrs by celltiter-glo luminescent cell viability assay; type: functional, cell-based
[8] = biological target: T3, von Hippel-Lindau disease tumor suppressor/Bromodomain-containing protein 3 (Homo sapiens, UniProt P40337+Q15059); assay: Protac activity at VHL/BRD3 in human HeLa cells assessed as degradation of BRD3 incubated for 24 hrs by Western blotting analysis; type: cell-based
T3 sequence (Q15059 whole entry): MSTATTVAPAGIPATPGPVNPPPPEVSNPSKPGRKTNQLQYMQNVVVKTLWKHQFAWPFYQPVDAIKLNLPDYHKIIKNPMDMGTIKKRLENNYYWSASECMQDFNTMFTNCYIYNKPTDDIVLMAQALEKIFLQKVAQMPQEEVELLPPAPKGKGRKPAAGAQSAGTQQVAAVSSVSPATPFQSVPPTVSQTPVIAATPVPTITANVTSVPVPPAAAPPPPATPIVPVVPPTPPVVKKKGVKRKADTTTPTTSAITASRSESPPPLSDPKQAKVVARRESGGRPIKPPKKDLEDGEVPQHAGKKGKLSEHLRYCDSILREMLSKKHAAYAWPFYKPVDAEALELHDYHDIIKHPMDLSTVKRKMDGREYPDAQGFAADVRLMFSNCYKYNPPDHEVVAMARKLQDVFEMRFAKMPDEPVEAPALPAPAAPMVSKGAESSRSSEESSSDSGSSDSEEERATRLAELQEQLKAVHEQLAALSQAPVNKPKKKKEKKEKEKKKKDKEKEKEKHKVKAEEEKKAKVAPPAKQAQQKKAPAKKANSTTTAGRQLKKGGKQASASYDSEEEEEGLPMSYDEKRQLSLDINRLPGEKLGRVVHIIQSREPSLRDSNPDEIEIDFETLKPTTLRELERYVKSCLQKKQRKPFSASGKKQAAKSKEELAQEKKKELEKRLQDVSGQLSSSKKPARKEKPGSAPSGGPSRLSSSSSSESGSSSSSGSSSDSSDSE
T3 sequence (P40337 whole entry): as the sequence (P40337 whole entry, looked up, other chains not shown) above

[9] = biological target: T1, von Hippel-Lindau disease tumor suppressor/Bromodomain-containing protein 4; assay: Protac activity at VHL/BRD4 in human HCT-116 cells assessed as degradation of BRD4 incubated for 24 hrs by immunoblot assay; type: cell-based
[10] = biological target: von Hippel-Lindau disease tumor suppressor/Estrogen receptor (Homo sapiens, UniProt P03372+P40337); assay: Protac activity at VHL/ER alpha in human MCF7 cells assessed as degradation of ER alpha incubated for 6 hrs by Western blot analysis; type: cell-based
Chain of von Hippel-Lindau disease tumor suppressor/Estrogen receptor (P03372 whole entry): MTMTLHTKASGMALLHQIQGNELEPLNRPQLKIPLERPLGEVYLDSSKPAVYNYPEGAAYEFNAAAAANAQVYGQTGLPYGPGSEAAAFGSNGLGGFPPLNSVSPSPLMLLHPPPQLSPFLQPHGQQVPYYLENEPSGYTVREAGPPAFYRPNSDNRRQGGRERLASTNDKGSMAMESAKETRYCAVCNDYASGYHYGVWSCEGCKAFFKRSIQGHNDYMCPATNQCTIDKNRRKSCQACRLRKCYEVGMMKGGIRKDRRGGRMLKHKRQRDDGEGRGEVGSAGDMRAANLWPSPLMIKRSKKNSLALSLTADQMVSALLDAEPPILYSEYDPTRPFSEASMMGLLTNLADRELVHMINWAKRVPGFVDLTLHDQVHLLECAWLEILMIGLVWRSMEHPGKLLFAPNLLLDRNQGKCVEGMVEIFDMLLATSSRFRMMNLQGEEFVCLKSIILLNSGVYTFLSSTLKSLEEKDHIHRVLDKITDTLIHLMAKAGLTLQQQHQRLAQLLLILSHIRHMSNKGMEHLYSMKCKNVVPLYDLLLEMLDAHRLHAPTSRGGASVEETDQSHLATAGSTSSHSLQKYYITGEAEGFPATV
Chain of von Hippel-Lindau disease tumor suppressor/Estrogen receptor (P40337 whole entry): as the sequence (P40337 whole entry, looked up, other chains not shown) above

[11] = system: MCF7; assay: Antiproliferative activity against human MCF7 cells assessed as cell growth inhibition incubated for 6 days with media replacement for every 2 to 3 days by MTT assay; type: functional, cell-based
[12] = biological target: T3, von Hippel-Lindau disease tumor suppressor/Bromodomain-containing protein 3; assay: Protac activity at VHL/BRD3 in HEK293 cells assessed as degradation of BRD3 incubated for 4 hrs by Western blot analysis; type: cell-based
[13] = Cytotoxicity against HEK293 cells assessed as inhibition of cell growth; type: toxicity, cell-based; details: human
[14] = biological target: T2, von Hippel-Lindau disease tumor suppressor/Bromodomain-containing protein 2; assay: Protac activity at VHL/BRD2 in HEK293 cells assessed as degradation of BRD2 incubated for 4 hrs by Western blot analysis; type: cell-based
[15] = biological target: T1, von Hippel-Lindau disease tumor suppressor/Bromodomain-containing protein 4; assay: Protac activity at VHL/BRD4 in HEK293 cells assessed as degradation of BRD4 incubated for 4 hrs by Western blot analysis; type: cell-based
[16] = system: HeLa; assay: Antiproliferative activity against human HeLa cells; type: functional, cell-based
[17] = system: OVCAR-8; assay: Antiproliferative activity against human OVCAR-8 cells; type: functional, cell-based
[18] = system: T47D; assay: Antiproliferative activity against human T47D cells; type: functional, cell-based
[19] = biological target: T4, von Hippel-Lindau disease tumor suppressor/GTPase KRas (Homo sapiens, UniProt P01116+P40337, G12C); assay: Protac activity at VHL/KRAS G12C mutant in human NCI-H358 cells assessed as degradation of KRAS G12C mutant incubated for 24 hrs by immunoblot assay; type: cell-based
T4 sequence (P01116 whole entry G12C, stated change not applied): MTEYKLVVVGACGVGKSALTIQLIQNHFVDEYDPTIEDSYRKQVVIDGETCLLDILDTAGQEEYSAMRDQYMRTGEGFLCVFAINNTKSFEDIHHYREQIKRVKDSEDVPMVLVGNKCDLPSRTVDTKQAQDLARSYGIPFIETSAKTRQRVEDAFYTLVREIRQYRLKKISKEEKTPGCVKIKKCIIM
T4 sequence (P40337 whole entry, stated change not applied): as the sequence (P40337 whole entry, looked up, other chains not shown) above

[20] = biological target: T4, von Hippel-Lindau disease tumor suppressor/GTPase KRas; assay: Protac activity at VHL/KRAS G12C mutant in human MIA PaCa-2 cells assessed as degradation of KRAS G12C mutant incubated for 24 hrs by immunoblot assay; type: cell-based
[21] = biological target: T4, von Hippel-Lindau disease tumor suppressor/GTPase KRas; assay: Protac activity at VHL/KRAS G12C mutant in human NCI-H23 cells assessed as degradation of KRAS G12C mutant incubated for 24 hrs by immunoblot assay; type: cell-based
[22] = biological target: T4, von Hippel-Lindau disease tumor suppressor/GTPase KRas; assay: Protac activity at VHL/KRAS G12C mutant in human NCI-H2030 cells assessed as degradation of KRAS G12C mutant incubated for 24 hrs by immunoblot assay; type: cell-based
[23] = biological target: T4, von Hippel-Lindau disease tumor suppressor/GTPase KRas; assay: Protac activity at VHL/KRAS G12C mutant in human SW1573 cells assessed as degradation of KRAS G12C mutant incubated for 24 hrs by immunoblot assay; type: cell-based
[24] = system: BaF3; assay: Antiproliferative activity against mouse BaF3 cells harboring EGFR L858R/T790M mutant assessed as cell growth inhibition incubated for 72 hrs; type: functional, cell-based; details: BaF3, 72 h
[25] = biological target: Protein fem-1 homolog B/Bromodomain-containing protein 4 (Homo sapiens, UniProt O60885+Q9UK73); assay: Protac activity at FEM1B/BRD4 in human HEK293T cells assessed as degradation of BRD4 incubated for 8 hrs by Western blot analysis; type: cell-based
[26] = biological target: Protein cereblon/GTPase KRas (Homo sapiens, UniProt P01116+Q96SW2, G12C); assay: Protac activity at CRBN/KRAS G12C mutant in human NCI-H358 cells assessed as degradation of KRAS G12C mutant; type: cell-based
Chain of Protein cereblon/GTPase KRas (P01116 whole entry G12C, stated change not applied): as the sequence (P01116 whole entry G12C, stated change not applied) above
Chain of Protein cereblon/GTPase KRas (Q96SW2 whole entry, stated change not applied): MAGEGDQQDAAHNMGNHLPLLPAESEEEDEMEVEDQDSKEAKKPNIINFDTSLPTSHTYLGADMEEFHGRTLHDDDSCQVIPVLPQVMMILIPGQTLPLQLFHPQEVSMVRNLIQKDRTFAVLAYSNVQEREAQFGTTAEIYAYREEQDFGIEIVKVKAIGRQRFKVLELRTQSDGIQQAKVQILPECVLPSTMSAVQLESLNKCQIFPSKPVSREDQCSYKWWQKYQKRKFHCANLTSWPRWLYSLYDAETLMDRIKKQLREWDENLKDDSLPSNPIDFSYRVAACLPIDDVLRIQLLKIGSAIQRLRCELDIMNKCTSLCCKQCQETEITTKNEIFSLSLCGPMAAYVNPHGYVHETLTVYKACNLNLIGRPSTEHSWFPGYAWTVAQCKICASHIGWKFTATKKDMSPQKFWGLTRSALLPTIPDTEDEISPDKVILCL

[27] = biological target: Protein cereblon/Bromodomain-containing protein 4 (Homo sapiens, UniProt O60885+Q96SW2); assay: Protac activity at CRBN/BRD4 (unknown origin); type: protein assay
[28] = biological target: von Hippel-Lindau disease tumor suppressor/Epidermal growth factor receptor (Homo sapiens, UniProt P00533+P40337); assay: Protac activity at VHL/wildtype EGFR in human OVCAR-8 cells assessed as degradation of wild type EGFR incubated for 24 hrs by immunoblot assay; type: cell-based
[29] = biological target: Protein cereblon/Protein deacetylase HDAC6 (Homo sapiens, UniProt Q96SW2+Q9UBN7); assay: Protac activity at CRBN/HDAC6 in human MM1.S assessed as degradation of HDAC6 incubated for 6 hrs by ELISA; type: cell-based
[30] = biological target: von Hippel-Lindau disease tumor suppressor/Histone deacetylase 3 (Homo sapiens, UniProt O15379+P40337); assay: Protac activity at VHL/HDAC3 in human MDA-MB-468 assessed as degradation of HDAC3 incubated for 14 hrs by Western blot analysis; type: cell-based
[31] = biological target: Protein cereblon/Cyclin-dependent kinase 6 (Homo sapiens, UniProt Q00534+Q96SW2); assay: Protac activity at CRBN/CDK6 in human MDA-MB-231 cells; type: cell-based
[32] = biological target: Protein cereblon/Cyclin-dependent kinase 4 (Homo sapiens, UniProt P11802+Q96SW2); assay: Protac activity at CRBN/CDK4 in human MDA-MB-231 cells; type: cell-based
Chain of Protein cereblon/Cyclin-dependent kinase 4 (P11802 whole entry): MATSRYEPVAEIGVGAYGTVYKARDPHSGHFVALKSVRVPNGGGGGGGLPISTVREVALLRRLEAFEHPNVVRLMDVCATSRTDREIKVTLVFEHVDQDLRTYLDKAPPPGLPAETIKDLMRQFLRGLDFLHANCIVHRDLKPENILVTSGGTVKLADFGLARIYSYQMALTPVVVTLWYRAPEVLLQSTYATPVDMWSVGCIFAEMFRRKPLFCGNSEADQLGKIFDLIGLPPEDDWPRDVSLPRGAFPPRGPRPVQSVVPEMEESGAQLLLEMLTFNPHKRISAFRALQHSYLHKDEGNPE
Chain of Protein cereblon/Cyclin-dependent kinase 4 (Q96SW2 whole entry): as the sequence (Q96SW2 whole entry, stated change not applied) above

[33] = biological target: von Hippel-Lindau disease tumor suppressor/Cyclin-dependent kinase 6 (Homo sapiens, UniProt P40337+Q00534); assay: Protac activity at VHL/CDK6 in human MM1.S cells assessed as degradation of CDK6 incubated for 16 hrs by immunoblot assay; type: cell-based
[34] = system: NCI-H358; assay: Antiproliferative activity against human NCI-H358 cells assessed as inhibition of cell growth incubated for 5 days by celltiter-glo luminescent cell viability assay; type: functional, cell-based; details: NCI-H358, 120 h

Nc1ccccc1NC(=O)c1ccc(COc2cccc3c2CN(C2CCC(=O)NC2=O)C3=O)cc1 (stereo not given)
IC50 [1]: 43 nM

CCN(CCCCCCCC(=O)NC(C(=O)N1C[C@@H](O)C[C@@H]1C(=O)N[C@H](C)c1ccc(-c2scnc2C)cc1)C(C)(C)C)CCOc1ccc(C(=O)c2c(-c3ccc(O)cc3)sc3cc(O)ccc23)cc1 (stereo not given in full)
IC50 [2]: 0.8 nM

CC1(C)C(=O)N(c2ccc(C#N)c(C(F)(F)F)c2)C(=S)N1COCCOCCOn1cc(CCCCCC(=O)CC23CC4CC(CC(C4)C2)C3)nn1
Activity [3]: 82.6% | IC50 [4]: 1750 nM

Cc1ncsc1-c1ccc2c(c1)OCCOCCO[C@H](NC(=O)C[C@@H]1N=C(c3ccc(Cl)cc3)c3c(sc(C)c3C)-n3c(C)nnc31)COCCOCCOCC(=O)N[C@H](C(C)(C)C)C(=O)N1C[C@@H](O)C[C@@H]1C(=O)NC2
EC50 [5]: 25 nM | EC50 [6]: > 125 nM | EC50 [7]: 300 nM | EC50 [8]: > 125 nM

COc1cc(C(=O)NCCOCCOCCOCCNC(=O)C[C@@H]2N=C(c3ccc(Cl)cc3)c3c(sc(C)c3C)-n3c(C)nnc32)ccc1NC(=O)[C@@H]1N[C@@H](CC(C)(C)C)[C@](C#N)(c2ccc(Cl)cc2F)[C@H]1c1cccc(Cl)c1F
EC50 [9]: 23.1 nM

Cc1ncsc1-c1ccc([C@@H](C)NC(=O)[C@H]2C[C@H](O)CN2C(=O)[C@H](NC(=O)CCCCOc2ccc(CCNC(=O)c3ccc(C(=O)c4c(-c5ccc(O)cc5)sc5cc(O)ccc45)cc3)cc2)C(C)(C)C)cc1
EC50 [10]: 1.1 nM | IC50 [11]: 13.2 nM

Cc1ncsc1-c1ccc(CNC(=O)[C@H]2C[C@H](O)CN2C(=O)[C@H](NC(=O)COCC(C)(COCCOCCOCCNC(=O)C[C@H]2N=C(c3ccc(Cl)cc3)c3c(sc(C)c3C)-n3c(C)nnc32)COCCOCCOCCNC(=O)C[C@H]2N=C(c3ccc(Cl)cc3)c3c(sc(C)c3C)-n3c(C)nnc32)C(C)(C)C)cc1
EC50 [12]: 3.3 nM | IC50 [13]: 1.1 nM | EC50 [14]: 1.1 nM | EC50 [15]: 0.7 nM

Cc1ncsc1-c1ccc(CNC(=O)[C@@H]2C[C@@H](OC(=O)CCCCn3cc(NC(=O)CC[C@@H](NC(=O)c4ccc(NCc5cnc6nc(N)[nH]c(=O)c6n5)cc4)C(=O)O)nn3)CN2C(=O)[C@@H](NC(=O)COCCCOCCNC(=O)C[C@@H]2N=C(c3ccc(Cl)cc3)c3c(sc(C)c3C)-n3c(C)nnc32)C(C)(C)C)cc1
IC50 [16]: 246 nM | IC50 [17]: 297 nM | IC50 [18]: 18 nM

C=C(F)C(=O)N1CCN(c2nc(O[C@@H]3CCCN3CCCOCCC(=O)N[C@H](C(=O)N3C[C@H](O)C[C@H]3C(=O)NCc3ccc(-c4scnc4C)cc3)C(C)(C)C)nc3c2CCN(c2cccc4cccc(Cl)c24)C3)C[C@H]1CC#N
EC50 [19]: 250 nM | EC50 [20]: 250 nM | EC50 [21]: 250 nM | EC50 [22]: 250 nM | EC50 [23]: 250 nM

O=C1CCC(N2C(=O)c3cccc(NCCOCCOCCOCCN4CCN(c5ccc(-c6ccc7c(c6)C(=O)N(C(C(=O)Nc6nccs6)c6ccccc6)C7)cn5)CC4)c3C2=O)C(=O)N1 (stereo not given)
IC50 [24]: 96 nM

C#CCCN(C(=O)CCl)c1ccc2c(c1)OCCN2CC(=O)NCCCCNC(=O)C[C@@H]1N=C(c2ccc(Cl)cc2)c2c(sc(C)c2C)-n2c(C)nnc21
EC50 [25]: 250 nM

COc1cc(Cl)c(-c2cc(Cl)ccc2Cl)cc1C(=O)N1CCN(C(=O)/C=C/C(=O)NCCCCCCNc2cccc3c2C(=O)N(C2CCC(=O)NC2=O)C3=O)CC1 (stereo not given)
EC50 [26]: 1250 nM

Cc1sc2c(c1C)C(c1ccc(Cl)cc1)=N[C@@H](CC(=O)NCCCCCNC(=O)COc1ccc(C3CCC(=O)NC3=O)cc1)c1nnc(C)n1-2 (stereo not given in full)
EC50 [27]: 0.87 nM

Cc1ncsc1-c1ccc(CNC(=O)[C@@H]2C[C@@H](O)CN2C(=O)[C@@H](NC(=O)COCCOCCOCCOc2ccc(-c3ccc4ncnc(Nc5ccc(OCc6cccc(F)c6)c(Cl)c5)c4c3)cc2)C(C)(C)C)cc1
EC50 [28]: 39.2 nM

O=C(CCCCCCC(=O)N/N=C/c1ccc(OCCCC#Cc2cccc3c2CN(C2CCC(=O)NC2=O)C3=O)cc1)NO (stereo not given)
EC50 [29]: 1.9 nM

CCCNNC(=O)c1ccc(-c2ccc(NC(=O)CCCCCCC(=O)NC(C(=O)N3C[C@@H](O)C[C@@H]3C(=O)N[C@H](C)c3ccc(-c4scnc4C)cc3)C(C)(C)C)cc2)cc1 (stereo not given in full)
EC50 [30]: 42 nM

CC(=O)C1=C(O)N(C2CCCC2)c2nc(Nc3ccc(N4CCN(Cc5cn(CCCCCNc6cccc7c6C(=O)N(C6CCC(=O)NC6=O)C7=O)nn5)CC4)cn3)ncc2C1C (stereo not given)
EC50 [31]: 34.1 nM | EC50 [32]: 12.9 nM

CC(=O)C1=C(O)N(C2CCCC2)c2nc(Nc3ccc(N4CCN(CCOCCOCCOc5cc(-c6scnc6C)ccc5CNC(=O)[C@@H]5C[C@@H](O)CN5C(=O)C(NC(=O)C5(F)CC5)C(C)(C)C)CC4)cn3)ncc2C1C (stereo not given in full)
EC50 [33]: 5.1 nM

CN(C)C(=O)c1cn(C2CCCC2)c2cnc(Nc3ccc(N4CCN(c5cn(CCCCCNc6cccc7c6C(=O)N(C6CCC(=O)NC6=O)C7=O)nn5)CC4)cn3)nc12 (stereo not given)
EC50 [32]: 97 nM

C=CC(=O)N1CCN(c2nc(NCCCN3CCN(CCCNc4cccc5c4C(=O)N(C4CCC(=O)NC4=O)C5=O)CC3)nc3cc(Cl)c(-c4cc(O)cc5ccccc45)c(F)c23)CC1 (stereo not given)
IC50 [34]: 510 nM
